The nature of the series: photoluminescence quantum yield (fraction); solvent given as SMILES.
Setting [1] is: in O=P(c1ccccc1)(c1ccccc1)c1ccccc1Oc1ccccc1P(=O)(c1ccccc1)c1ccccc1.

“And” between values parts separate entries of the source, which are not always exact repeats. Equal entries are not always repeated.

Molecule `CCCCCCCCCCCCOc1cc2c3c(ccc4c5c(OCCCCCCCCCCCC)cc6c7c(ccc(c1c34)c75)C(=O)N(C1CCCCC1)C6=O)C(=O)N(C1CCCCC1)C2=O` displayed a photoluminescence quantum yield (in ClC(Cl)Cl) of 0.724.
With `COc1ccc2n1[B-](F)(F)[N+]1=C(c3ccccc3)C=CC1=C2c1ccc(C)cc1`, the photoluminescence quantum yield was 0.28 (in C1CCCCC1); 0.3 (in C1CCOC1); 0.36 (in C1COCCO1); 0.28 (in CCOC(C)=O); 0.23 (in CO); 0.51 (in Cc1ccccc1). Where the note is “in ClC(Cl)Cl”, this molecule yielded a photoluminescence quantum yield of 0.38.
As to `CC(C)(C)n1c(=O)c2cc3ccc4cccc5ccc(c2c1=O)c3c45`, the photoluminescence quantum yield (in ClC(Cl)Cl) was 0.41 and 0.408.
The molecule `CCc1ccc(-c2nc(-c3ccc(-n4c5ccccc5c5ccccc54)cc3)cc(-c3ccc(-n4c5ccccc5c5ccccc54)cc3)n2)cc1` returned a photoluminescence quantum yield (in C1CCOC1) of 0.6, a photoluminescence quantum yield (in CN(C)C=O) of 0.74, a photoluminescence quantum yield (in Cc1ccccc1) of 0.71 and a photoluminescence quantum yield (in ClC(Cl)Cl) of 0.58.
As for `COc1ccc(C2=C(C)C3=C(c4c(-c5ccccn5)nc5ccccn45)c4c(C)cc(C)n4[B-](F)(F)[N+]3=C2C)cc1`, the photoluminescence quantum yield (in ClCCl) is 0.212.
Molecule `COc1ccc2c(c1)N(c1ccccc1-c1ccccc1)c1cc3c(cc1=N2)Oc1c(cc(C(C)(C)C)cc1C(C)(C)C)N=3` registered a photoluminescence quantum yield (in CCCCCC) of 0.34.
On to `CCCCCCCCCCCCOc1cc2c(cc1OCCCCCCCCCCCC)C1=C3C(=O)N4C=Cc5cc(OCCCCCCCCCCCC)c(OCCCCCCCCCCCC)cc5C4=C3C(=O)N1C=C2`, for which the photoluminescence quantum yield (in CN(C)C=O) was 0.7 and the photoluminescence quantum yield (in ClC(Cl)Cl) is 0.8.
In the case of `N#Cc1c(-n2cc(-c3ccccc3)nn2)n([C@H]2C[C@H](O)[C@@H](CO)O2)c2ncnc(N)c12`, the photoluminescence quantum yield (in CO) came out at 0.004.
Under “in ClCCl”, `CCCCCCCCCCCCN1C(=O)c2c(c3ccc4cc(-c5ccc(F)cc5)c(OC)cc4c3c3c2ccc2cc(-c4ccc(F)cc4)c(OC)cc23)C1=O` had a photoluminescence quantum yield of 0.153.
Consider `COc1ccc2c(-c3nc(-c4ccccc4F)no3)cc(=O)oc2c1`, for which the photoluminescence quantum yield was 0.57 (in CCO) and 0.25 (in ClC(Cl)Cl).
For the molecule `CCCCCCOc1cc(N(CC)CC)ccc1/C=C(\C#N)c1ccc(/C=C/C(=C(C#N)C#N)c2ccc(N(c3ccccc3)c3ccccc3)cc2)s1`, the photoluminescence quantum yield (in ClCCl) turned out to be 0.027.
With `Cc1ccccc1C1=C2C=c3c(oc4c3ccc3ccccc34)=[N+]2[B-](F)(F)n2c1cc1c3ccc4ccccc4c3oc12`, the photoluminescence quantum yield worked out at 0.81 (in C1CCCCC1), 0.69 (in CCOC(C)=O) and 0.48 (in CO).
Consider `Clc1nc(Cl)nc(Nc2ccc3cc4ccccc4cc3c2)n1`, for which the photoluminescence quantum yield was 0 (in C1COCCO1), 0 (in CC#N), 0 (in CCCCOCCCC) and 0 (in CCOC(C)=O).
Turning to `CC1=C(C#Cc2ccccc2)C(C)=[N+]2C1=C(c1ccccc1)c1c(C)c(C#Cc3ccccc3)c(C)n1[B-]2(F)F`, the photoluminescence quantum yield by setting is: (in C1CCOC1) 0.6; (in ClCCl) 0.82.
Where the note is “in ClCCl”, `C(=C\c1ccc(-c2ccncc2)cc1)/c1ccc(-c2ccncc2)cc1` had a photoluminescence quantum yield of 0.97.
`N#Cc1cc2ccc(O)cc2oc1=O` returned a photoluminescence quantum yield (in C1CCCCC1) of 0.0105; a photoluminescence quantum yield (in C1CCOC1) of 0.00102; a photoluminescence quantum yield (in CC#N) of 0.00059; a photoluminescence quantum yield (in CCOC(C)=O) of 0.0597; a photoluminescence quantum yield (in CS(C)=O) of 0.00123; a photoluminescence quantum yield (in ClC(Cl)Cl) of 0.0509.
`C[Si](C)(C)c1cc2c(cc3ccc4cccc5ccc2c3c45)[nH]1` returned a photoluminescence quantum yield (in CCOC(C)=O) of 0.95.
With `COc1ccc2c(c1)[n+]([O-])nc(N)[n+]2[O-]`, the photoluminescence quantum yield by setting is: (in CC#N) 0.0227; (in O) 0.0124.
For `C=Cc1cc2ccc(OC)cc2oc1=O`, the photoluminescence quantum yield (in CC#N) was found to be 0.99.
Consider `COc1ccc(C2=C3C(/C=C/c4cc(OC)c(OC)c(OC)c4)=C(C=O)C(/C=C/c4cc(OC)c(OC)c(OC)c4)=[N+]3[B-](F)(F)n3c(/C=C/c4cc(OC)c(OC)c(OC)c4)c(C=O)c(C=Cc4cc(OC)c(OC)c(OC)c4)c32)cc1`, for which the photoluminescence quantum yield (in ClCCl) was 0.4.
Turning to `CCn1c2ccccc2c2cc(C#Cc3cc(C#Cc4ccc5c(c4)c4ccccc4n5CC)nc(S(C)(=O)=O)n3)ccc21`, the photoluminescence quantum yield was determined as 0.74 (in C1CCOC1); 0.75 (in CCOC(C)=O); 0.59 (in CN(C)C=O); 0.81 (in Cc1ccccc1); 0.46 (in ClCCl).
Consider `COc1ccc(-n2c3ccccc3c3cc(C=C(C#N)C#N)ccc32)cc1`, for which the photoluminescence quantum yield amounted to 0.03 (in C1CCOC1); 0.01 (in CC#N); 0.018 (in CC(C)=O); 0.05 (in CCOC(C)=O); 0.015 (in CO); 0.01 (in CS(C)=O). This molecule registered a photoluminescence quantum yield (in Cc1ccccc1) of 0.15 and a photoluminescence quantum yield (in ClC(Cl)Cl) of 0.035.
For `CCOC(=O)CN1C(=O)C2=C(c3ccccc3)N(CC(=O)OCC)C(=O)C2=C1c1ccccc1`, the photoluminescence quantum yield turned out to be 0.31 (in CC#N), 0.56 (in CS(C)=O) and 0.36 (in Cc1ccccc1).
Molecule `N#Cc1nc(N(Cc2ccccc2)Cc2ccccc2)c(C#N)nc1N(Cc1ccccc1)Cc1ccccc1` came in with a photoluminescence quantum yield (in ClC(Cl)Cl) of 0.76.
`CCC(C)(C)c1ccc(-c2ccc(-c3ccccc3)cc2)cc1`: where the note is “in C1COCCO1”, the photoluminescence quantum yield is 0.65.
`Nc1ccc(/C=C/c2ccccc2)cc1`: the photoluminescence quantum yield is, setting by setting: (in CC#N) 0.03; (in CCCCCC) 0.03.
Molecule `COC(=O)COc1ccc(/C=C/C2=[N+]3C(=C(c4ccc(N(C)C)cc4)c4c(C)cc(C)n4[B-]3(F)F)C(C)=C2)cc1` gave a photoluminescence quantum yield (in CO) of 0.67.
As for `CC1=C(c2ccccc2)C2=Cc3c(-c4ccccc4)c(C)c(C)n3[B-](F)(F)[N+]2=C1C`, the photoluminescence quantum yield (in CC#N) is 0.93.
`COc1ccc(C2=[N+]3C(=Nc4c(-c5ccccc5)cc(-c5ccc(OC)cc5)n4[B-]3(F)F)C(c3ccccc3)=C2)cc1` showed a photoluminescence quantum yield (in ClC(Cl)Cl) of 0.36 and a photoluminescence quantum yield (in ClCCl) of 0.36.
As for `COc1cc(C#Cc2ccccc2)c(C#Cc2ccccc2)cc1OC`, the photoluminescence quantum yield (in CC#N) was determined as 0.81.
Turning to `c1ccc(C2=Nc3cccc4[n+]3[B-](c3ccccc3)(N2)NC(c2ccccc2)=N4)cc1`, the photoluminescence quantum yield (in ClCCl) is 0.13.
The same measure, in the same setting: the value for `N#Cc1ccc(-c2nc(-c3ccccc3)c3ccccn23)cc1` was 0.21.
In turn, `C(=C(c1ccccc1)c1ccccc1)c1ccc(-c2cc(-c3ccc(C=C(c4ccccc4)c4ccccc4)cc3)c(-c3ccc(C=C(c4ccccc4)c4ccccc4)cc3)cc2-c2ccc(C=C(c3ccccc3)c3ccccc3)cc2)cc1` returned a photoluminescence quantum yield (in C1CCOC1) of 0.0282.
Turning to `COc1cc(OC)c2c(c1)C(=O)c1ccc(OC)cc1-2`, the photoluminescence quantum yield reads like this: (in C1CCCCC1) 0.0095; (in CC#N) 0.0012; (in CCO) 0.
Consider `CCCC1=Cc2nc1ccc1[nH]c(cc1CCC)c1nc(c(OC)cc3[nH]c2cc3CCC)C(CCC)=C1`, for which the photoluminescence quantum yield (in Cc1ccccc1) stood at 0.18.
On to `CN(C)/C=N\c1ccc2c3c(cccc13)C(=O)c1ccccc1-2`, for which the photoluminescence quantum yield by setting is: (in C1CCOC1) 0.23; (in CCCCCC) 0.31; (in CCO) 0.26; (in CCOC(C)=O) 0.28; (in CN(C)C=O) 0.2; (in CO) 0.27. The photoluminescence quantum yield is 0.66 (in Cc1ccccc1); 0.24 (in ClC(Cl)(Cl)Cl); 0.55 (in ClC(Cl)Cl); 0.55 (in ClCCl); 0.67 (in c1ccccc1).
Molecule `CC1(C)c2ccccc2-c2cc3c4ccccc4n(-c4ccc(-c5nc(-c6ccccc6)nc(-c6ccccc6)n5)cc4)c3cc21` displayed a photoluminescence quantum yield under setting [1] of 0.933.
In the case of `O=C1c2ccccc2-c2c(-c3cc(Br)ccc3O)[nH]c(=O)n21`, the photoluminescence quantum yield is, setting by setting: (in CC#N) 0.49; (in CO) 0.32; (in ClCCl) 0.61.
Consider `c1ccc2c(c1)oc1nc3oc4ccc(-n5c6ccccc6c6ccccc65)cc4c3cc12`, for which the photoluminescence quantum yield (in ClC(Cl)Cl) was found to be 0.074.
The molecule `Cc1cc2c(ccc3c(C)[n+](C)c(C)cc32)c(C)[n+]1C` showed a photoluminescence quantum yield (in CC#N) of 0.29.
On to `Cc1ccc(N(c2ccc(C)cc2)c2ccc(-c3ccc(C=C(C#N)C#N)s3)cc2)cc1`, for which, for the setting “in ClC(Cl)Cl”, the photoluminescence quantum yield turned out to be 0.07.
Molecule `CC(C)c1cc(C(C)C)c(B2c3ccccc3Oc3cc(N4c5ccccc5C5(c6ccccc6-c6ccccc65)c5ccccc54)ccc32)c(C(C)C)c1` yielded a photoluminescence quantum yield (in Cc1ccccc1) of 0.76.
`CC1(C)c2ccccc2N(c2cc[n+]3c(c2)-c2ccccc2O[B-]3(F)F)c2ccccc21` registered a photoluminescence quantum yield under setting [1] of 0.65.
As for `Cc1cc2c(o1)c(C)cc1ccc(=O)oc12`, the photoluminescence quantum yield is, setting by setting: (in C1CCCCC1) 0.0001; (in C1COCCO1) 0.0001; (in CC#N) 0.001; (in CCO) 0.007; (in OCC(F)(F)F) 0.03.
In turn, `Cc1cc(C)c(B(c2cc3ccc4cccc5ccc(c2)c3c45)c2c(C)cc(C)cc2C)c(C)c1` registered a photoluminescence quantum yield (in Cc1ccccc1) of 0.68.
On to `CC(C)[Si](C#Cc1ccc(-c2c3cccc4c5cccc6c(-c7ccc(C#C[Si](C(C)C)(C(C)C)C(C)C)cc7)c7cccc8c9cccc2c9c(c34)c(c65)c78)cc1)(C(C)C)C(C)C`, for which, for the setting “in Cc1ccccc1”, the photoluminescence quantum yield was determined as 0.38.

Source of the values: the Deep4Chem optical property database.
